This is an account of results in patent publication US11617774B2, “Composition for preventing or treating stroke or degenerative brain disease” (UNIVERSITY-INDUSTRY COOPERATION GROUP OF KYUNG HEE …, priority 2013, dated 2023).

Data set [1] deals with middle cerebral artery occlusion model rats. Description: Neuroprotective effect in middle cerebral artery occlusion model (MCAo), TTC staining of brain slices. Format: in vivo, Sprague-Dawley (SD) rats. The settings on record: intravenous right after ischemia induction: Clinoleic20% 200 mg/kg, SMOFlipid20% 500 mg/kg, oleic acid 100 mg/kg, sodium oleate solution 3 mg/kg, TTC staining 24 hours after reperfusion.

Data set [2] has the same test system. As to the kind of experiment: Safety evaluation: death rate of experimental animals in the middle cerebral artery occlusion model. Type of data set: in vivo, Sprague-Dawley (SD) rats. The settings on record: MCAo rats, from the time of administration until sacrifice; intravenous: oleic acid 100 mg/kg, sodium oleate solution 3 mg/kg, Clinoleic20% 200 mg/kg, SMOFlipid20% 500 mg/kg. As for the experimental part: Right after degenerative brain disease induction, death rate was calculated by counting number of dead animals in every group from the time of administration until they were sacrificed.

The test system of data set [3] is transient local cerebral ischemia rat model. The settings on record: cited from earlier work.
In data set [4] the test system is erythroclasis (hemolysis). The settings on record: cited from earlier work.

In the case of `CCCCCCCC/C=C\CCCCCCCC(=O)O` [Oleic Acid, oleic acid], the “TTC-unstained area (neuronal cell death) of brain slices compared to the control group” value in data set [1] was “less TTC-unstained area”. Besides, in data set [2], the “Death Rate (%)” value was determined as 18.1% and the “Number of Dead Animals” value was determined as 21. The “protective / neuroprotective efficacy” value in data set [3] is “superior neuroprotective efficacy”. The “erythroclasis (hemolysis) in an in vitro test” value in data set [4] is listed as “incurs erythroclasis (hemolysis)”.
Take `CCCCCCCC/C=C\CCCCCCCC(=O)[O-].[Na+]` [Sodium Oleate, sodium oleate]: the “TTC-unstained area (neuronal cell death) of brain slices compared to the control group” value in data set [1] is recorded as “less TTC-unstained area”. For the same compound, in data set [2], the “Death Rate (%)” value is reported as 21.6% and the “Number of Dead Animals” value is 8.
